The EC50 is the concentration needed to bring the measured effect to its halfway point. One may read the Emax as the maximal effect, on the per cent scale that the assay sets.

Drawing on patent publication US20240208992A1, “MACROCYCLES AS CFTR MODULATORS” (Idorsia Pharmaceuticals Ltd, priority 2021, published 2024), this text covers EC50 and Emax for 15 compounds.

This experiment concerns the target human F508del-CFTR (Homo sapiens, UniProt P13569, DEL508-508). As to the kind of experiment: F508del-CFTR cell surface expression (corrector activity), DiscoveRx ß-galactosidase complementation chemiluminescence assay in recombinant U2OS cell line.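 On all read-outs here: U2OS cells co-expressing ProLink-tagged F508del-CFTR and a membrane-anchored enzyme acceptor, where more surface CFTR restores β-galactosidase activity measured by chemiluminescence.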 The settings on record: U2OS cell line, 16h compound incubation; for EC50: EC50, F508del-CFTR cell surface expression, geomean values; for Emax: U2OS, in relation to the Emax of the corrector lumacaftor (=100%), arithmetic mean values.

Chain of human F508del-CFTR (P13569 with tags, fused parts or gaps DEL508-508): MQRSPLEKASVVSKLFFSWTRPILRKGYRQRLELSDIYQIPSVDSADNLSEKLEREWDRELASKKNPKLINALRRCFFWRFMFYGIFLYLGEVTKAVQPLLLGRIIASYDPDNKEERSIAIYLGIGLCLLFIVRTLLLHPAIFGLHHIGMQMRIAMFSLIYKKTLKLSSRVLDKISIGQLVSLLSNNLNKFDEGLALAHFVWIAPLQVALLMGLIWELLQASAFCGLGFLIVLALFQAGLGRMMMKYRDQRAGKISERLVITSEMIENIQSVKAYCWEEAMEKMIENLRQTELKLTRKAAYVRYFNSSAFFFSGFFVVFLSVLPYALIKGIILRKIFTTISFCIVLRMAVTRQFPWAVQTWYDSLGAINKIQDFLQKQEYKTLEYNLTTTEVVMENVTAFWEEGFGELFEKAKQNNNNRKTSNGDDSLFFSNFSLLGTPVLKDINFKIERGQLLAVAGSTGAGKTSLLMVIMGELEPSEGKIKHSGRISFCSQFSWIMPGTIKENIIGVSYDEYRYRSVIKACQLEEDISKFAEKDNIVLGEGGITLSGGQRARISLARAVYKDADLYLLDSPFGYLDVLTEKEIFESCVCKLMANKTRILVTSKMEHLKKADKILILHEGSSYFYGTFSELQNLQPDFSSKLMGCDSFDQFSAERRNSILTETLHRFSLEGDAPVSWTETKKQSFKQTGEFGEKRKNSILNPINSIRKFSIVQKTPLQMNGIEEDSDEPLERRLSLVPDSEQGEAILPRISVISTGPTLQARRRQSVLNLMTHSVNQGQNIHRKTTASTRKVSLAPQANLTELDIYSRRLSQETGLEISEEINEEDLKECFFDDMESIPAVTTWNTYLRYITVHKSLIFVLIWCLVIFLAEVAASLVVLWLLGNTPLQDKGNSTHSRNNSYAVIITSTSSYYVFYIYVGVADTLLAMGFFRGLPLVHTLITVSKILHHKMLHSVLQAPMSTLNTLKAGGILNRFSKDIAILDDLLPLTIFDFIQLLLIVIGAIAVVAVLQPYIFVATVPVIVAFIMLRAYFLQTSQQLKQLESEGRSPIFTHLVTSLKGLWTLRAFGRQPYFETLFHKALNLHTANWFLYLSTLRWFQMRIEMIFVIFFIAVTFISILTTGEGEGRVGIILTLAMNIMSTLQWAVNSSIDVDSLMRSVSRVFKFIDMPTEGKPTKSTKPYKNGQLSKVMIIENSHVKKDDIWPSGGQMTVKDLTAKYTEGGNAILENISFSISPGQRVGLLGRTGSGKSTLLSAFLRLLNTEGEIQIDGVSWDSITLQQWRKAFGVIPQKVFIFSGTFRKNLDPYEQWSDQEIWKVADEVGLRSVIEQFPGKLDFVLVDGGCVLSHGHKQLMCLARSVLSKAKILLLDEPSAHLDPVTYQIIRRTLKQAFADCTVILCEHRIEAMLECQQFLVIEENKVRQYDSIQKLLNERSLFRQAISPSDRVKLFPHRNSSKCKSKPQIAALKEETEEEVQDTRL

Regarding `COc1cccc2c1C(=O)N[C@H](C(=O)NCCc1ccc3c(c1)OCO3)CC(=O)N(C)[C@@H](CC1CCCC1)C(=O)N(C[C@@H]1CCCCO1)CC(=O)N[C@H](Cc1ccccc1)CO2` [Example 308, (3R,9S,13S)-N-(2-(benzo[d][1,3]dioxol-5-yl)ethyl)-3-benzyl-9-(cyclopentylmethyl)-16-methoxy-10-methyl-5,8,11,15-tetraoxo-7-(((S)-tetrahydro-2H-pyran-2-yl)methyl)-2,3,4,5,6,7,8,9,10,11,12,13,14,15-tetradecahydrobenzo[p][1]oxa[4,7,10,14]tetraazacycloheptadecine-13-carboxamide], the EC50 came to 469 nM and the Emax worked out at 103%.
The matching figures for `COc1cccc2c1C(=O)N[C@H](C(=O)NCCc1ccc3c(c1)OCO3)CC(=O)N(C)[C@@H](CC1CCCCC1)C(=O)N(C[C@@H]1CCCCO1)CC(=O)N[C@H](Cc1ccccc1)CO2` [Example 309, (3R,9S,13S)-N-(2-(benzo[d][1,3]dioxol-5-yl)ethyl)-3-benzyl-9-(cyclohexylmethyl)-16-methoxy-10-methyl-5,8,11,15-tetraoxo-7-(((S)-tetrahydro-2H-pyran-2-yl)methyl)-2,3,4,5,6,7,8,9,10,11,12,13,14,15-tetradecahydrobenzo[p][1]oxa[4,7,10,14]tetraazacycloheptadecine-13-carboxamide]: 456 nM and 113%.
Turning to `COc1cccc(CCNC(=O)[C@@H]2CC(=O)N(C)[C@@H](CC(C)C)C(=O)N(C[C@H]3CCCCO3)CC(=O)N[C@H](Cc3ccccc3)COc3cccc(OC)c3C(=O)N2)c1` [Example 311, (3R,9S,13S)-3-benzyl-9-isobutyl-16-methoxy-N-(3-methoxyphenethyl)-10-methyl-5,8,11,15-tetraoxo-7-(((R)-tetrahydro-2H-pyran-2-yl)methyl)-2,3,4,5,6,7,8,9,10,11,12,13,14,15-tetradecahydrobenzo[p][1]oxa[4,7,10,14]tetraazacycloheptadecine-13-carboxamide], the EC50 amounted to 454 nM and the Emax was determined as 127%.
In the case of `COc1cccc(CCNC(=O)[C@@H]2CC(=O)N(C)[C@@H](CC(C)C)C(=O)N(C[C@@H]3CCCCO3)CC(=O)N[C@H](Cc3ccccc3)COc3cccc(OC)c3C(=O)N2)c1` [Example 312, (3R,9S,13S)-3-benzyl-9-isobutyl-16-methoxy-N-(3-methoxyphenethyl)-10-methyl-5,8,11,15-tetraoxo-7-(((S)-tetrahydro-2H-pyran-2-yl)methyl)-2,3,4,5,6,7,8,9,10,11,12,13,14,15-tetradecahydrobenzo[p][1]oxa[4,7,10,14]tetraazacycloheptadecine-13-carboxamide], the EC50 amounted to 727 nM and the Emax worked out at 111%.
The matching figures for `COc1cccc(CCNC(=O)[C@@H]2CC(=O)N(C)[C@@H](CC3CCCC3)C(=O)N(C[C@H]3CCCCO3)CC(=O)N[C@H](Cc3ccccc3)COc3cccc(OC)c3C(=O)N2)c1` [Example 313, (3R,9S,13S)-3-benzyl-9-(cyclopentylmethyl)-16-methoxy-N-(3-methoxyphenethyl)-10-methyl-5,8,11,15-tetraoxo-7-(((R)-tetrahydro-2H-pyran-2-yl)methyl)-2,3,4,5,6,7,8,9,10,11,12,13,14,15-tetradecahydrobenzo[p][1]oxa[4,7,10,14]tetraazacycloheptadecine-13-carboxamide]: 313 nM and 119%.
Turning to `COc1cccc(CCNC(=O)[C@@H]2CC(=O)N(C)[C@@H](CC3CCCCC3)C(=O)N(C[C@@H]3CCCCO3)CC(=O)N[C@H](Cc3ccccc3)COc3cccc(OC)c3C(=O)N2)c1` [Example 314, (3R,9S,13S)-3-benzyl-9-(cyclohexylmethyl)-16-methoxy-N-(3-methoxyphenethyl)-10-methyl-5,8,11,15-tetraoxo-7-(((S)-tetrahydro-2H-pyran-2-yl)methyl)-2,3,4,5,6,7,8,9,10,11,12,13,14,15-tetradecahydrobenzo[p][1]oxa[4,7,10,14]tetraazacycloheptadecine-13-carboxamide], the EC50 turned out to be 469 nM and the Emax was 111%.
The matching figures for `COc1cccc(CCNC(=O)[C@@H]2CC(=O)N(C)[C@@H](CC(C)C)C(=O)N(CCC3CCCCC3)CC(=O)N[C@H](Cc3ccccc3)COc3cnc4ccccc4c3C(=O)N2)c1` [Example 315, (3S,7S,13R)-13-benzyl-9-(2-cyclohexylethyl)-7-isobutyl-N-(3-methoxyphenethyl)-6-methyl-1,5,8,11-tetraoxo-1,2,3,4,5,6,7,8,9,10,11,12,13,14-tetradecahydro-[1]oxa[4,7,10,14]tetraazacycloheptadecino[17,16-c]quinoline-3-carboxamide]: 115 nM and 349%.
The like results for `[2H]C([2H])([2H])Oc1cccc(CCNC(=O)[C@@H]2CC(=O)N(C)[C@@H](CC(C)C)C(=O)N(CCC3CCCCC3)CC(=O)N[C@H](Cc3ccccc3)COc3cnc4ccccc4c3C(=O)N2)c1` [Example 316, (3S,7S,13R)-13-benzyl-9-(2-cyclohexylethyl)-7-isobutyl-N-(3-(methoxy-d3)phenethyl)-6-methyl-1,5,8,11-tetraoxo-1,2,3,4,5,6,7,8,9,10,11,12,13,14-tetradecahydro-[1]oxa[4,7,10,14]tetraazacycloheptadecino[17,16-c]quinoline-3-carboxamide] were, in that order, 55 nM and 343%.
With `COc1cccc(CCNC(=O)[C@@H]2CC(=O)N(C)[C@@H](CC(C)C)C(=O)N(C)CC(=O)N[C@H](Cc3ccccc3)COc3cccc(OC(F)(F)F)c3C(=O)N2)c1` [Example 317, (3R,9S,13S)-3-benzyl-9-isobutyl-N-(3-methoxyphenethyl)-7,10-dimethyl-5,8,11,15-tetraoxo-16-(trifluoromethoxy)-2,3,4,5,6,7,8,9,10,11,12,13,14,15-tetradecahydrobenzo[p][1]oxa[4,7,10,14]tetraazacycloheptadecine-13-carboxamide], the EC50 came out at 661 nM and the Emax turned out to be 89%.
The matching figures for `CC(C)C[C@H]1C(=O)N(C)CC(=O)N[C@H](Cc2ccccc2)COc2cnc3ccccc3c2C(=O)N[C@H](C(=O)NCCc2ccc3c(c2)OCO3)CC(=O)N1C` [Example 318, (3S,7S,13R)-N-(2-(benzo[d][1,3]dioxol-5-yl)ethyl)-13-benzyl-7-isobutyl-6,9-dimethyl-1,5,8,11-tetraoxo-1,2,3,4,5,6,7,8,9,10,11,12,13,14-tetradecahydro-[1]oxa[4,7,10,14]tetraazacycloheptadecino[17,16-c]quinoline-3-carboxamide]: 679 nM and 295%.
The like results for `COc1cccc(CCNC(=O)[C@@H]2CC(=O)N(C)[C@@H](CC(C)C)C(=O)N(C)CC(=O)N[C@H](Cc3ccccc3)COc3cnc4ccccc4c3C(=O)N2)c1` [Example 319, (3S,7S,13R)-13-benzyl-7-isobutyl-N-(3-methoxyphenethyl)-6,9-dimethyl-1,5,8,11-tetraoxo-1,2,3,4,5,6,7,8,9,10,11,12,13,14-tetradecahydro-[1]oxa[4,7,10,14]tetraazacycloheptadecino[17,16-c]quinoline-3-carboxamide] were, in that order, 574 nM and 296%.
The matching figures for `[2H]C([2H])([2H])Oc1cccc(CCNC(=O)[C@@H]2CC(=O)N(C)[C@@H](CC(C)C)C(=O)N(C)CC(=O)N[C@H](Cc3ccccc3)COc3cnc4ccccc4c3C(=O)N2)c1` [Example 320, (3S,7S,13R)-13-benzyl-7-isobutyl-N-(3-(methoxy-d3)phenethyl)-6,9-dimethyl-1,5,8,11-tetraoxo-1,2,3,4,5,6,7,8,9,10,11,12,13,14-tetradecahydro-[1]oxa[4,7,10,14]tetraazacycloheptadecino[17,16-c]quinoline-3-carboxamide]: 363 nM and 297%.
As to `CC(C)C[C@H]1C(=O)N(C)CC(=O)N[C@H](Cc2ccccc2)COc2ccc3c(c2C(=O)N[C@H](C(=O)NCCc2ccc4c(c2)OCO4)CC(=O)N1C)OCO3` [Example 321, (8R,14S,18S)-N-(2-(benzo[d][1,3]dioxol-5-yl)ethyl)-8-benzyl-14-isobutyl-12,15-dimethyl-10,13,16,20-tetraoxo-7,8,9,10,11,12,13,14,15,16,17,18,19,20-tetradecahydro-[1,3]dioxolo[4′,5′:5,6]benzo[1,2-p][1]oxa[4,7,10,14]tetraazacycloheptadecine-18-carboxamide], the EC50 turned out to be 816 nM and the Emax worked out at 266%.
The like results for `[2H]C1([2H])Oc2ccc3c(c2O1)C(=O)N[C@H](C(=O)NCCc1ccc2c(c1)OCO2)CC(=O)N(C)[C@@H](CC(C)C)C(=O)N(C)CC(=O)N[C@H](Cc1ccccc1)CO3` [Example 322, (8R,14S,18S)-N-(2-(benzo[d][1,3]dioxol-5-yl)ethyl)-8-benzyl-14-isobutyl-12,15-dimethyl-10,13,16,20-tetraoxo-7,8,9,10,11,12,13,14,15,16,17,18,19,20-tetradecahydro-[1,3]dioxolo[4′,5′:5,6]benzo[1,2-p][1]oxa[4,7,10,14]tetraazacycloheptadecine-2,2-d2-18-carboxamide] were, in that order, 504 nM and 197%.
The matching figures for `COc1cccc(CCNC(=O)[C@@H]2CC(=O)N(C)[C@@H](CC(C)C)C(=O)N(C)CC(=O)N[C@H](Cc3ccccc3)COc3ccc4c(c3C(=O)N2)OCO4)c1` [Example 323, (8R,14S,18S)-8-benzyl-14-isobutyl-N-(3-methoxyphenethyl)-12,15-dimethyl-10,13,16,20-tetraoxo-7,8,9,10,11,12,13,14,15,16,17,18,19,20-tetradecahydro-[1,3]dioxolo[4′,5′:5,6]benzo[1,2-p][1]oxa[4,7,10,14]tetraazacycloheptadecine-18-carboxamide]: 742 nM and 258%.
